{"source": "paper PMC9882606", "about": "“Rationally designed inhibitors of the Musashi protein-RNA interaction by hotspot mimicry” (Research Square, 2023)", "key": {"[1]": {"target": "T1, MSI2 (Homo sapiens, UniProt Q96DH6)", "T1 sequence (Q96DH6 whole entry)": "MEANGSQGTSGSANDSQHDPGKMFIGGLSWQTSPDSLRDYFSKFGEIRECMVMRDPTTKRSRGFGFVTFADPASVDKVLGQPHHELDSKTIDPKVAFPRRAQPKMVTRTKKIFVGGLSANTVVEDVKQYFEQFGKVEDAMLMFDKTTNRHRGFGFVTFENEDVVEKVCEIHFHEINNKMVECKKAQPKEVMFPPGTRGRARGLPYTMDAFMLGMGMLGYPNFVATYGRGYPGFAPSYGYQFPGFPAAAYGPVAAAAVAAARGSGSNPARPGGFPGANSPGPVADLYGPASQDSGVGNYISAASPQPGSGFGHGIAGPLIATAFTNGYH", "test": "Cellular thermal shift assay (CETSA) in PC9 cells", "format": "cell-based", "parameters": "endogenous in cells; host or cells: PC9", "conditions": "PC9, 3 hours, 20 μM or 40 μM, heated to 49 °C", "excerpt": "(§1) To explore the effect of these MSI2 inhibitors in a cancer-relevant cellular context, we selected two MSI2-dependent cancer cell lines: non-small cell lung cancer cell line PC9 and leukemia cell line K562 [73, 98–101]. Upon treatment of PC9 cells with Ro, R12–8–44–3, or negative control R12-neg, we found at multiple time points that cellular MSI2 protein levels were unchanged (Figure 6a). To confirm target engagement, we therefore adapted the cellular thermal shift assay (CETSA). […]\n(§2) Figure 6: Direct cellular engagement of MSI2 interaction by R12–44–3. […] MSI2 protein abundance was then quantified and normalized to untreated sample. One representative image is shown; quantification is presented as the average ± S.E.M. from 3 independent replicates. […] Cells were briefly incubated at temperatures between 40 °C to 67 °C, then centrifuged and the amount of MSI2 remaining in the soluble fraction was quantified by Western blotting. […] One representative image is shown; quantification is presented as the average ± S.E.M. from 3 independent replicates, normalized first to beta-actin and then to DMSO control. […] One representative image is shown; quantification is presented as the average ± S.E.M. from 3 independent replicates, normalized first to beta-actin and then to DMSO control. […]"}, "[2]": {"target": "T2, MSI1 RRM1 (Homo sapiens, UniProt O43347)", "T2 sequence (O43347 20-110 limits assumed)": "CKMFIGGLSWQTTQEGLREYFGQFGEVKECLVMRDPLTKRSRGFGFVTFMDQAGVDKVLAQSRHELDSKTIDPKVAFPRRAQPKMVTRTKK", "test": "HSQC chemical shift mapping", "format": "binding", "conditions": "MSI1 RRM1 in presence vs absence of compound", "excerpt": "To test the hypothesis that R12–8–44–3 engages MSI1 RRM1 though specific binding interactions (rather than non-specific aggregation), we used HSQC chemical shift mapping. We collected spectra for this construct in the presence and absence of R12–8–44–3 (Figure 3a), using previously-reported assignments from a very similar construct. […] While not all peaks were assigned in our reference spectrum, we gratifyingly find that of the assigned peaks, those with the largest chemical shift differences (Phe23, Lys93) comprise exactly the expected binding site for R12–8–44–3 (Figure 3b).\nFigure 3: Structural characterization of R12–8–44–3 / MSI1. (A) HSQC spectrum of MSI1 RRM1 collected in the presence (red) or absence (black) of R12–8–44–3. Assigned peaks showing the strongest chemical shift difference are labeled (Phe23, Lys93). (B) Mapping the location of these residues to our model of R12–8–44–3/MSI1 confirms that these residues comprise the intended binding site."}, "[3]": {"target": "T1, MSI2", "test": "Cellular thermal shift assay (CETSA) in K562 cells", "format": "cell-based", "conditions": "K562, 3 hours, 20 μM or 40 μM, heated to 49 °C", "excerpt": "as §1, §2"}}}
{"smiles": "Cc1cc(C(=O)OCc2nc(N)c3c(C)c(C)sc3n2)c(N)cc1F", "note": "[R12–8–44–3]", "values": [{"measurement": "soluble MSI2 after heating (CETSA)", "setting": "[1]", "result": "confers protection against thermal-induced aggregation"}, {"measurement": "HSQC chemical shift changes on addition of compound", "setting": "[2]", "result": "only a small number of peaks shift"}, {"measurement": "soluble MSI2 after heating (CETSA)", "setting": "[3]", "result": "confers protection against thermal-induced aggregation"}]}
